These are literature values, as cited in publication PMC3819103 (Magnetic resonance in medicine : official journal of the …, 2010).

In this data set the test system is blood-brain barrier.

In the case of “β-Ala(Mys)-Arg-Arg-Arg-Arg-Arg-Arg-Arg-Cys-NH2 [MPAP]”, the “Ability to cross the blood-brain barrier and localization” value was “could cross the blood-brain barrier, followed by localization to the cytoplasm”. Besides, the “Delivery of a near-infrared dye across the blood-brain barrier” value (earlier studies) was “can deliver a near-infrared dye across the blood-brain barrier”.
